Values joined by “and” are separate entries in the source; they are usually repeats but may differ in a detail not shown here. Equal values may be shown once.
How the values were obtained:
[1] = system: ERK1/2 activation by AT1R; test: Western blot of AT1R-mediated ERK1/2 activation in Gαq/11 KO cells (with or without β-arrestin2); format: cell-based, human; conditions: for ERK1/2 activation by AT1R in cells lacking Gαq/11, supplemented or not with β-arrestin: 50 μM
Protocol: HEK293SL cells (10^5 cells per well) were seeded in a poly-L-lysine-coated six-well plate and transiently transfected with 3 μg Flag-AT1R, HA-B2R or HA-β2AR and/or 500 ng Flag-MEK1-WT, Flag-MEK1-DD, Flag-BRAF-WT, Flag-BRAF-V600E, Flag-K-Ras-WT, Flag-K-Ras-G12V, HA-ARF6-WT, or HA-ARF6-T27N. Gαq/11 KO and βarr1/2 KO cells were seeded onto 100 mm dishes at a density of 10^6 cells per dish. Next day, cells were transfected with 3 μg AT1R alone or along with 500 ng of β-arrestin2 using PEI. After 18 h of transfection, cells were detached and re-seeded onto poly-L-lysine coated 12-well plates (~1.5–2 × 10^5cells/well) for subsequent experiments. Forty-eight hours post transfection, in a 37 °C water bath, cells were serum-starved for 30 min, pretreated with DMSO (0.1%) or compound 21/Rasarfin (50 µM or at indicated concentrations) for 30 min, then stimulated or not with the indicated ligand [AngII (1 µM), BK (1 µM), Iso (10 µM) or EGF (100 ng/ml)] at indicated times. Cells were put on ice, washed with PBS and solubilized in 2x laemmli buffer (250 mM Tris–HCl pH 6.8, 2% SDS (w/v), 10% glycerol (v/v), 0.01% bromophenol blue (w/v) and 5% β-mercaptoethanol (v/v)) by heating at 65 °C for 15 min. Lysates were resolved on 10 or 14% SDS-PAGE, transferred to nitrocellulose membranes and immunoblotted for p-ERK1/2, ERK1/2, p-Akt, Akt, HA, Myc, β-actin or FLAG. ImageLab 5.2 software was used to quantify the digital blots as fold of the phosphorylated protein over total protein, which were then normalized as indicated in the figure legends. Uncropped immunoblots are provided in the Source Data file.

[2] = system: β-arrestin2 recruitment to B2R; test: BRET recruitment of β-arrestin2 to B2R; format: cell-based, human
Protocol: HEK293SL cells were seeded at a density of 7.5 × 10^5 cells per 100-mm dish and 24 h later, transiently transfected as such. For receptor internalization experiments, cells were transfected with 0.12 μg AT1R-RlucII, B2R-RlucII, or β2AR-RlucII and 0.48 μg of either rGFP-CAAX (to assess removal from the PM) or rGFP-FYVE (to assess accumulation in the endosomes). For β-arrestin recruitment assays, cells were transfected with 0.48 μg of receptor-YFP along with 0.12 μg of β-arrestin-RlucII. For β-arrestin/AP-2 binding experiments, cells were transfected with 1 μg Flag-AT1R, 1 μg β2-Adaptin-YFP, and 0.12 μg β-arrestin2-RlucII. For G protein activation, cells were transfected with 3 μg of sp-Flag-AT1R along with either 4.5 μg of the Gαq-polycistronic BRET sensor or 0.24 μg of the Gαi3-RlucII and 0.6 μg of GFP10-Gγ2 and Gβ1 sensors or 0.12 μg PKN-RBD-RlucII and 0.48 μg of rGFP-CAAX. For PKC activation, cells were transfected with 3 μg of sp-Flag-AT1R and 0.18 μg of the PKC sensor. For GTPase activation experiments, cells were transfected with 1 μg Flag-AT1R, 0.48 μg of rGFP-CAAX, and either 0.12 μg of GGA3-PBD-RlucII, PAK-CRIB-RlucII or Raf-RBD-RlucII. For biosensor validation experiments, cells were additionally transfected with 500 ng Flag-K-Ras-WT, Flag-K-Ras-G12V, Flag-K-Ras-SOS-CAAX, HA-ARF6-WT, HA-ARF6-T27N, Myc-Rac1-WT, Myc-Rac1-Q61L or Myc-Rac1-T17N. For PI3K/Akt activation experiments, cells were transfected with 0.48 μg of rGFP-CAAX and 0.12 μg of Akt (PH)-RlucII. After 18 h of transfection, the media was replaced and cells were divided for subsequent experiments. Cells were detached and seeded onto poly-L-ornithine-coated 96-well flat white bottom plates (BrandTech Scientific) at a density of 2.5 × 10^4 cells per well in media. The next day, cells were washed once with Tyrode’s buffer (140 mM NaCl, 2.7 mM KCl, 1 mM CaCl2, 12 mM NaHCO3, 5.6 mM D-glucose, 0.5 mM MgCl2, 0.37 mM NaH2PO4, 25 mM HEPES, pH 7.4) and left in Tyrode’s buffer. For kinetics of β-arrestin recruitment or β-arrestin binding to receptor and AP-2 experiments, cells were serum starved for 30 min, pretreated with 21 (50 µM) or Barbadin (100 µM) for 30 min, stimulated with 100 nM AngII or 1 µM BK and BRET signals were monitored at indicated times using a Victor X Light plate reader (PerkinElmer). Coelenterazine H (final concentration of 5 µM) was added 3–5 min prior to BRET measurements. Filter set was 460/80 nm and 535/30 nm for detecting the RlucII Renilla luciferase (donor) and YFP (acceptor) light emissions, respectively. The BRET ratio was determined by calculating the ratio of the light emitted by YFP over the light emitted by the RlucII. For G protein activation, cells were serum starved, pretreated with compounds for 30 min, stimulated with 100 nM AngII for 2 min (Gαq, Gαi3, and Rho sensors) or 5 min (PKC sensor). For the kinetics of GTPase and PI3K/Akt activation, cells were serum starved, pretreated with 21 (50 µM) or Wortmannin (200 nM) for 30 min, stimulated with ligand (100 nM AngII or 100 ng/ml EGF) and BRET signals were monitored at indicated times. For concentration-response curves, cells were serum-starved, pretreated with various concentrations of compounds for 30 min and stimulated with ligand (100 nM AngII, 1 µM BK, 10 µM Isoproterenol (Iso) or 100 ng/ml EGF) in Tyrode’s buffer for 30 min for receptor internalization, 10 min for ARF6, 2 min for Rac and Rho activation and 5 min for Ras activation and PI3K/Akt activation. BRET signals were monitored using a Synergy2 (BioTek) microplate reader and coelenterazine 400a (final concentrations of 5 µM) added 3–5 min prior to BRET measurements. Filter set was 410/80 nm and 515/30 nm for detecting the RlucII Renilla luciferase (donor) and rGFP/GFP10 (acceptor) light emissions, respectively. The BRET ratio was determined by calculating the ratio of the light emitted by rGFP/GFP10 over the light emitted by the RlucII.

[3] = Gq/11 KO cells + barr2, Time 0 min

With `CC(C)C(=O)N1CCN(c2ccc(NC(=O)c3cc4ccccc4o3)cc2Cl)CC1` [Compound 21] the “ERK1/2 activation by AT1R in cells lacking Gαq/11, supplemented or not with β-arrestin” value [1] was “efficiently inhibited ERK1/2 activation”, the “ERK1/2 activation by AT1R in cells lacking Gαq/11, supplemented or not with β-arrestin” value ([1]; listed as Rasarfin) was “totally blocked” and the “ERK1/2 activation relative to time 0 (S_Fig.4a)” value [1, 3] was 1. The “Predicted (LS) mean diff. DMSO - Comp 21 (Bonferroni's multiple comparisons test)” value (from here on “Predicted (LS) mean diff. DMSO”) [1, 3] was 0, the “Predicted (LS) mean diff. DMSO” value ([1]; Gq/11 KO cells + barr2, Time 5 min) was 5.112 and the “Predicted (LS) mean diff. DMSO” value ([1]; Gq/11 KO cells + barr2, Time 20 min) was 2.869. For the same compound, the “ERK1/2 activation relative to time 0 (S_Fig.4a)” value ([1]; Gq/11 KO cells, Time 0 min) was 1, the “Mean Diff. DMSO - Comp 21 (Bonferroni's multiple comparisons test)” value ([1]; Gq/11 KO cells, Time 0 min) was 0 and the “Mean Diff. DMSO - Comp 21 (Bonferroni's multiple comparisons test)” value ([1]; Gq/11 KO cells, Time 5 min) was 14.92. The “ERK1/2 activation relative to time 0 (S_Fig.4a)” value ([1]; Gq/11 KO cells, Time 5 min, listed as Comp 21) was 0.6393 and 0.9475 and 0.8926 and 0.5297, the “Mean Diff. DMSO - Comp 21 (Bonferroni's multiple comparisons test)” value ([1]; Gq/11 KO cells, Time 20 min) was 7.116 and the “β-arrestin2 recruitment to B2R at the PM” value ([2]; 50 μM) was “did not preclude”. For the same compound, the “BK-promoted BRET, Barr2” value ([2]; Time 0 min) was 0, the “BK-promoted BRET, Barr2” value ([2]; Time 5 min, listed as Comp 21) was 0.1301 and 0.1897 and 0.1572 and the “BK-promoted BRET, Barr2” value ([2]; Time 10 min, listed as Comp 21) was 0.1662 and 0.2107 and 0.2145. The “BK-promoted BRET, Barr2” value ([2]; Time 15 min, listed as Comp 21) was 0.1989 and 0.1955 and 0.2222, the “BK-promoted BRET, Barr2” value ([2]; Time 30 min, listed as Comp 21) was 0.2065 and 0.1814 and 0.2273 and the “BK-promoted BRET, Barr2” value ([2]; Time 60 min, listed as Comp 21) was 0.2055 and 0.169 and 0.2219.
